From PubChem BioAssay AID1963960 (Molecular Pharmacology Branch, DTP, NCI, 2024)

Tested on: MDA-MB-468 spheroids with HUVEC/MSC, viability
Assay: Anticancer human tumor MDA-MB-468 cell line growth inhibition [PI3K];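 further: spheroids exposed to agents for seven days before readout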;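 on viability, T/C: 100% = DMSO vehicle control viability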
Conditions: for IC50: curve of first compound; for viability, T/C: stronger effect = lower value
Outline: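 We assembled tumor spheroids that included a stromal compartment of HUVEC and MSCs, then exposed them to targeted agents alone and together with PI3K pathway inhibitors. Concentration series descended by half-log from clinically achievable Cmax levels. Viability served as the endpoint.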

[1] = second compound 0.00316 µM, first compound 0.000316 µM
[2] = second compound 0.00316 µM, first compound 0.001 µM
[3] = second compound 0.00316 µM, first compound 0.00316 µM
[4] = second compound 0.00316 µM, first compound 0.01 µM
[5] = second compound 0.00316 µM, first compound 0.0316 µM
[6] = second compound 0.00316 µM, first compound 0.1 µM
[7] = second compound 0.01 µM, first compound 0.000316 µM
[8] = second compound 0.01 µM, first compound 0.001 µM
[9] = second compound 0.01 µM, first compound 0.00316 µM
[10] = second compound 0.01 µM, first compound 0.01 µM
[11] = second compound 0.01 µM, first compound 0.0316 µM
[12] = second compound 0.01 µM, first compound 0.1 µM
[13] = second compound 0.0316 µM, first compound 0.000316 µM
[14] = second compound 0.0316 µM, first compound 0.001 µM
[15] = second compound 0.0316 µM, first compound 0.00316 µM
[16] = second compound 0.0316 µM, first compound 0.01 µM
[17] = second compound 0.0316 µM, first compound 0.0316 µM
[18] = second compound 0.0316 µM, first compound 0.1 µM
[19] = second compound 0.1 µM, first compound 0.000316 µM
[20] = second compound 0.1 µM, first compound 0.001 µM
[21] = second compound 0.1 µM, first compound 0.00316 µM
[22] = second compound 0.1 µM, first compound 0.01 µM
[23] = second compound 0.1 µM, first compound 0.0316 µM
[24] = second compound 0.1 µM, first compound 0.1 µM
[25] = second compound 0.316 µM, first compound 0.000316 µM
[26] = second compound 0.316 µM, first compound 0.001 µM
[27] = second compound 0.316 µM, first compound 0.00316 µM
[28] = second compound 0.316 µM, first compound 0.01 µM
[29] = second compound 0.316 µM, first compound 0.0316 µM
[30] = second compound 0.316 µM, first compound 0.1 µM
[31] = second compound 1 µM, first compound 0.000316 µM
[32] = second compound 1 µM, first compound 0.001 µM
[33] = second compound 1 µM, first compound 0.00316 µM
[34] = second compound 1 µM, first compound 0.01 µM
[35] = second compound 1 µM, first compound 0.0316 µM
[36] = second compound 1 µM, first compound 0.1 µM

Q: Which IC50 (second compound 0.00316 µM) does the source give for `CC(C)n1nc(-c2ccc3oc(N)nc3c2)c2c(N)ncnc21` + COc1c(OCCCN2CCOCC2)ccc2c3n(c(=NC(=O)c4cnc(N)nc4)nc12)CCN3 here?
A: 0.0342 µM

Q: And the IC50 (second compound 0.01 µM)?
A: 0.0417 µM

Q: And the IC50 (second compound 0.0316 µM)?
A: 0.032 µM

Q: And the IC50 (second compound 0.1 µM)?
A: 0.0104 µM

Q: What about the IC50 (second compound 0.316 µM) of the same molecule?
A: < 0.000316 µM

Q: And the IC50 (second compound 1 µM)?
A: < 0.000316 µM

Q: What about the viability, T/C [1] of the same molecule?
A: 81.1%

Q: What about the viability, T/C [2] of the same molecule?
A: 87%

Q: And the viability, T/C [3]?
A: 95.5%

Q: And the viability, T/C [4]?
A: 88.3%

Q: What about the viability, T/C [5] of the same molecule?
A: 52.3%

Q: What about the viability, T/C [6] of the same molecule?
A: 18.8%

Q: And the viability, T/C [7]?
A: 77.2%

Q: And the viability, T/C [8]?
A: 83.5%

Q: And the viability, T/C [9]?
A: 87.7%

Q: What about the viability, T/C [10] of the same molecule?
A: 81.1%

Q: What about the viability, T/C [11] of the same molecule?
A: 61.1%

Q: And the viability, T/C [12]?
A: 14.9%

Q: What about the viability, T/C [13] of the same molecule?
A: 75.6%

Q: And the viability, T/C [14]?
A: 84.4%

Q: And the viability, T/C [15]?
A: 80.9%

Q: What about the viability, T/C [16] of the same molecule?
A: 68%

Q: What about the viability, T/C [17] of the same molecule?
A: 51.2%

Q: What about the viability, T/C [18] of the same molecule?
A: 11.6%

Q: And the viability, T/C [19]?
A: 49.8%

Q: And the viability, T/C [20]?
A: 63.6%

Q: And the viability, T/C [21]?
A: 53.7%

Q: What about the viability, T/C [22] of the same molecule?
A: 49.9%

Q: What about the viability, T/C [23] of the same molecule?
A: 36%

Q: What about the viability, T/C [24] of the same molecule?
A: 7.66%

Q: What about the viability, T/C [25] of the same molecule?
A: 28.2%

Q: What about the viability, T/C [26] of the same molecule?
A: 25.8%

Q: And the viability, T/C [27]?
A: 28.1%

Q: What about the viability, T/C [28] of the same molecule?
A: 24.9%

Q: What about the viability, T/C [29] of the same molecule?
A: 15.4%

Q: What about the viability, T/C [30] of the same molecule?
A: 3.12%

Q: And the viability, T/C [31]?
A: 3.84%

Q: And the viability, T/C [32]?
A: 3.57%

Q: And the viability, T/C [33]?
A: 2.98%

Q: What about the viability, T/C [34] of the same molecule?
A: 3%

Q: And the viability, T/C [35]?
A: 1.87%

Q: And the viability, T/C [36]?
A: 0.59%

Q: How did the IC50 (second compound 0.00316 µM) turn out when `C[C@@H](NC(=O)c1ncnc(N)c1Cl)c1ncc(C(=O)Nc2cc(C(F)(F)F)c(Cl)cn2)s1` + COc1c(OCCCN2CCOCC2)ccc2c3n(c(=NC(=O)c4cnc(N)nc4)nc12)CCN3 was run?
A: > 10 µM

Q: What about the IC50 (second compound 0.01 µM) of the same molecule?
A: > 10 µM

Q: And the IC50 (second compound 0.0316 µM)?
A: > 10 µM

Q: What about the IC50 (second compound 0.1 µM) of the same molecule?
A: > 10 µM

Q: And the IC50 (second compound 0.316 µM)?
A: < 0.0316 µM

Q: And the IC50 (second compound 1 µM)?
A: < 0.0316 µM

Q: What about the viability, T/C [5] of the same molecule?
A: 83.1%

Q: What about the viability, T/C [6] of the same molecule?
A: 91.9%

Q: And the viability, T/C (second compound 0.00316 µM, first compound 0.316 µM)?
A: 93.5%

Q: And the viability, T/C (second compound 0.00316 µM, first compound 1 µM)?
A: 96.2%

Q: What about the viability, T/C (second compound 0.00316 µM, first compound 3.16 µM) of the same molecule?
A: 86.4%

Q: And the viability, T/C (second compound 0.00316 µM, first compound 10 µM)?
A: 76.4%

Q: What about the viability, T/C [11] of the same molecule?
A: 87%

Q: What about the viability, T/C [12] of the same molecule?
A: 101%

Q: What about the viability, T/C (second compound 0.01 µM, first compound 0.316 µM) of the same molecule?
A: 87.4%

Q: What about the viability, T/C (second compound 0.01 µM, first compound 1 µM) of the same molecule?
A: 101%

Q: What about the viability, T/C (second compound 0.01 µM, first compound 3.16 µM) of the same molecule?
A: 99.7%

Q: And the viability, T/C (second compound 0.01 µM, first compound 10 µM)?
A: 71.4%

Q: What about the viability, T/C [17] of the same molecule?
A: 79.7%

Q: What about the viability, T/C [18] of the same molecule?
A: 79.2%

Q: What about the viability, T/C (second compound 0.0316 µM, first compound 0.316 µM) of the same molecule?
A: 91.6%

Q: And the viability, T/C (second compound 0.0316 µM, first compound 1 µM)?
A: 75.9%

Q: What about the viability, T/C (second compound 0.0316 µM, first compound 3.16 µM) of the same molecule?
A: 74.5%

Q: And the viability, T/C (second compound 0.0316 µM, first compound 10 µM)?
A: 61.6%

Q: And the viability, T/C [23]?
A: 51.1%

Q: What about the viability, T/C [24] of the same molecule?
A: 52.5%

Q: What about the viability, T/C (second compound 0.1 µM, first compound 0.316 µM) of the same molecule?
A: 57.5%

Q: What about the viability, T/C (second compound 0.1 µM, first compound 1 µM) of the same molecule?
A: 66.6%

Q: And the viability, T/C (second compound 0.1 µM, first compound 3.16 µM)?
A: 59.9%

Q: What about the viability, T/C (second compound 0.1 µM, first compound 10 µM) of the same molecule?
A: 56.6%

Q: And the viability, T/C [29]?
A: 28.3%

Q: And the viability, T/C [30]?
A: 27.8%

Q: What about the viability, T/C (second compound 0.316 µM, first compound 0.316 µM) of the same molecule?
A: 30%

Q: What about the viability, T/C (second compound 0.316 µM, first compound 1 µM) of the same molecule?
A: 37.3%

Q: And the viability, T/C (second compound 0.316 µM, first compound 3.16 µM)?
A: 36.3%

Q: And the viability, T/C (second compound 0.316 µM, first compound 10 µM)?
A: 31.9%

Q: And the viability, T/C [35]?
A: 5.16%

Q: And the viability, T/C [36]?
A: 4.86%

Q: What about the viability, T/C (second compound 1 µM, first compound 0.316 µM) of the same molecule?
A: 5.09%

Q: And the viability, T/C (second compound 1 µM, first compound 1 µM)?
A: 7.06%

Q: What about the viability, T/C (second compound 1 µM, first compound 3.16 µM) of the same molecule?
A: 7.47%

Q: And the viability, T/C (second compound 1 µM, first compound 10 µM)?
A: 5.33%

Q: How did the IC50 (second compound 0.00316 µM) turn out when `CC(=O)c1c(C)c2cnc(Nc3ccc(N4CCNCC4)cn3)nc2n(C2CCCC2)c1=O` + COc1c(OCCCN2CCOCC2)ccc2c3n(c(=NC(=O)c4cnc(N)nc4)nc12)CCN3 was run?
A: > 0.1 µM

Q: What about the IC50 (second compound 0.01 µM) of the same molecule?
A: > 0.1 µM

Q: What about the IC50 (second compound 0.0316 µM) of the same molecule?
A: > 0.1 µM

Q: And the IC50 (second compound 0.1 µM)?
A: > 0.1 µM

Q: What about the IC50 (second compound 0.316 µM) of the same molecule?
A: < 0.000316 µM

Q: What about the IC50 (second compound 1 µM) of the same molecule?
A: < 0.000316 µM

Q: What about the viability, T/C [1] of the same molecule?
A: 105%

Q: What about the viability, T/C [2] of the same molecule?
A: 92.6%

Q: What about the viability, T/C [3] of the same molecule?
A: 92.5%

Q: And the viability, T/C [4]?
A: 99.7%

Q: What about the viability, T/C [5] of the same molecule?
A: 90.1%

Q: And the viability, T/C [6]?
A: 91.5%

Q: What about the viability, T/C [7] of the same molecule?
A: 85.7%

Q: What about the viability, T/C [8] of the same molecule?
A: 84%

Q: And the viability, T/C [9]?
A: 81.2%

Q: And the viability, T/C [10]?
A: 86.2%

Q: And the viability, T/C [11]?
A: 86.8%

Q: What about the viability, T/C [12] of the same molecule?
A: 110%

Q: And the viability, T/C [13]?
A: 64.1%

Q: What about the viability, T/C [14] of the same molecule?
A: 67.5%

Q: And the viability, T/C [15]?
A: 72.2%

Q: What about the viability, T/C [16] of the same molecule?
A: 79.8%

Q: And the viability, T/C [17]?
A: 83.2%

Q: And the viability, T/C [18]?
A: 86.4%

Q: What about the viability, T/C [19] of the same molecule?
A: 59.5%

Q: And the viability, T/C [20]?
A: 62.8%

Q: And the viability, T/C [21]?
A: 58.8%

Q: And the viability, T/C [22]?
A: 61.5%

Q: What about the viability, T/C [23] of the same molecule?
A: 64.1%

Q: What about the viability, T/C [24] of the same molecule?
A: 53.2%

Q: What about the viability, T/C [25] of the same molecule?
A: 26.6%

Q: What about the viability, T/C [26] of the same molecule?
A: 25.5%

Q: And the viability, T/C [27]?
A: 27.1%

Q: And the viability, T/C [28]?
A: 26.3%

Q: And the viability, T/C [29]?
A: 27.1%

Q: And the viability, T/C [30]?
A: 27.9%

Q: What about the viability, T/C [31] of the same molecule?
A: 3.5%

Q: What about the viability, T/C [32] of the same molecule?
A: 3.63%

Q: And the viability, T/C [33]?
A: 2.3%

Q: And the viability, T/C [34]?
A: 3.4%

Q: And the viability, T/C [35]?
A: 2.94%

Q: What about the viability, T/C [36] of the same molecule?
A: 2.61%
